According to the NIST ThermoML archive (doi:10.1021/je101130e):
± gives the expanded uncertainty stated by the source.

Test: mn = molality of the nth substance listed, in mol/kg
Details: 298.15 K, 101 kPa, Liquid, Vibrating tube method

- mass density (m2 = 0.003931): 1316.39 ± 10 kg/m3
- mass density (m2 = 0.1352): 1316.68 ± 10 kg/m3
Compound: ClCCl [dichloromethane] + CCOS(=O)(=O)[O-].CCn1cc[n+](C)c1
